Assay results reported in patent publication US8367873B2, “Phenyl-substituted bicyclooctane-1,3-dione derivatives” (Bayer Cropscience AG, priority 2008, dated 2013).

Legend:
Type in all cases: in vivo
[1] = system: Setaria viridis; assay: Herbicidal post-emergence action; conditions: post-emergence method; for herbicidal effect against SETVI (Setaria viridis): 80 g/ha; for pest or weed control at 80 g/ha: Setaria viridis, 504 h, read-out: herbicidal effect against SETVI (Setaria viridis)
Procedure: (§1) Seeds of monocotylidonous and dicotylidonous weed and crop plants are placed in sandy loam in wood fibre pots, covered with soil and cultivated in a greenhouse under good growth conditions. Two to three weeks after sowing, the test plants are treated at the one-leaf stage. The test compounds, formulated as wettable powders (WP), are then with a water application rate of 600 l/ha (converted), with 0.2% of wetting agent added, sprayed onto the green parts of the plants in different amounts. After the test plants have been kept in the greenhouse under optimum growth conditions for about three weeks, the effect of the preparations is assessed visually in comparison to untreated controls (herbicidal effect in percent: 100% effect=the plants have died, 0% effect=like control plants).

[2] = system: Echinocloa crus-galli; assay: Herbicidal post-emergence action; conditions: post-emergence method; for herbicidal effect against ECHCG (Echinochloa crus-galli): 80 g/ha; for pest or weed control at 80 g/ha: Echinochloa crus-galli, 504 h, read-out: herbicidal effect against ECHCG (Echinochloa crus-galli)
Procedure: as §1

[3] = system: Alopecurus myosuroides; assay: Herbicidal post-emergence action; conditions: post-emergence method; for herbicidal effect against ALOMY (Alopecurus myosuroides): 80 g/ha; for pest or weed control at 80 g/ha: Alopecurus myosuroides, 504 h, read-out: herbicidal effect against ALOMY (Alopecurus myosuroides)
Procedure: as §1

[4] = system: Lolium multiflorum; assay: Herbicidal post-emergence action; conditions: post-emergence method; for herbicidal effect against LOLMU (Lolium multiflorum): 80 g/ha; for pest or weed control at 80 g/ha: Lolium multiflorum, 504 h, read-out: herbicidal effect against LOLMU (Lolium multiflorum)
Procedure: as §1

[5] = system: monocotylidonous and dicotylidonous weed and crop plants; assay: Herbicidal post-emergence action (other test plants); conditions: post-emergence method; for herbicidal effect against AVEFA (Avena fatua): 80 g/ha; for pest or weed control at 80 g/ha: 504 h, Avena fatua, read-out: herbicidal effect against AVEFA (Avena fatua)
Procedure: as §1

Cc1cc(C)c(C2=C(OC(=O)C(C)(C)CCl)C3CC(=O)CC3C2=O)c(C)c1 (stereo not shown) [I-b-52]
herbicidal effect against SETVI (Setaria viridis) [1]: 90% | herbicidal effect against ECHCG (Echinochloa crus-galli) [2]: 100% | herbicidal effect against ALOMY (Alopecurus myosuroides) [3]: 0% | herbicidal effect against LOLMU (Lolium multiflorum) [4]: 0% | herbicidal effect against AVEFA (Avena fatua) [5]: 0%

COCC(=O)OC1=C(c2c(C)cc(C)cc2C)C(=O)C2CC(=O)CC12 (stereo not shown) [I-b-53]
herbicidal effect against SETVI (Setaria viridis) [1]: 90% | herbicidal effect against ECHCG (Echinochloa crus-galli) [2]: 100% | herbicidal effect against ALOMY (Alopecurus myosuroides) [3]: 20% | herbicidal effect against LOLMU (Lolium multiflorum) [4]: 0% | herbicidal effect against AVEFA (Avena fatua) [5]: 0%

Cc1cc(C)c(C2=C(OC(=O)C(C)C)C3CC(=O)CC3C2=O)c(C)c1 (stereo not shown) [I-b-54]
herbicidal effect against SETVI (Setaria viridis) [1]: 100% | herbicidal effect against ECHCG (Echinochloa crus-galli) [2]: 100% | herbicidal effect against ALOMY (Alopecurus myosuroides) [3]: 20% | herbicidal effect against LOLMU (Lolium multiflorum) [4]: 0% | herbicidal effect against AVEFA (Avena fatua) [5]: 0%

CCC(C)(C)C(=O)OC1=C(c2c(C)cc(C)cc2C)C(=O)C2CC(=O)CC12 (stereo not shown) [I-b-55]
herbicidal effect against SETVI (Setaria viridis) [1]: 90% | herbicidal effect against ECHCG (Echinochloa crus-galli) [2]: 90% | herbicidal effect against ALOMY (Alopecurus myosuroides) [3]: 0% | herbicidal effect against LOLMU (Lolium multiflorum) [4]: 0% | herbicidal effect against AVEFA (Avena fatua) [5]: 0%

Cc1cc(C)c(C2=C(OC(=O)CC(C)C)C3CC(=O)CC3C2=O)c(C)c1 (stereo not shown) [I-b-56]
herbicidal effect against SETVI (Setaria viridis) [1]: 100% | herbicidal effect against ECHCG (Echinochloa crus-galli) [2]: 100% | herbicidal effect against ALOMY (Alopecurus myosuroides) [3]: 20% | herbicidal effect against LOLMU (Lolium multiflorum) [4]: 0% | herbicidal effect against AVEFA (Avena fatua) [5]: 0%

CCC(=O)OC1=C(c2c(C)cc(C)cc2C)C(=O)C2CC(=O)CC12 (stereo not shown) [I-b-57]
herbicidal effect against SETVI (Setaria viridis) [1]: 100% | herbicidal effect against ECHCG (Echinochloa crus-galli) [2]: 100% | herbicidal effect against ALOMY (Alopecurus myosuroides) [3]: 0% | herbicidal effect against LOLMU (Lolium multiflorum) [4]: 0% | herbicidal effect against AVEFA (Avena fatua) [5]: 0%

C#CCON=C1CC2C(=O)C(c3c(C)cc(C)cc3C)=C(OC(=O)C(C)C)C2C1 (stereo not shown) [I-b-58]
herbicidal effect against SETVI (Setaria viridis) [1]: 20% | herbicidal effect against ECHCG (Echinochloa crus-galli) [2]: 80% | herbicidal effect against ALOMY (Alopecurus myosuroides) [3]: 0% | herbicidal effect against LOLMU (Lolium multiflorum) [4]: 60% | herbicidal effect against AVEFA (Avena fatua) [5]: 0%

C#CCON=C1CC2C(=O)C(c3c(C)cc(C)cc3C)=C(OC(=O)C(C)(C)C)C2C1 (stereo not shown) [I-b-59]
herbicidal effect against SETVI (Setaria viridis) [1]: 0% | herbicidal effect against ECHCG (Echinochloa crus-galli) [2]: 80% | herbicidal effect against ALOMY (Alopecurus myosuroides) [3]: 20% | herbicidal effect against LOLMU (Lolium multiflorum) [4]: 80% | herbicidal effect against AVEFA (Avena fatua) [5]: 0%

Cc1cc(C)c(C2=C(OC(=O)C(C)(C)C)C3CC(=O)CC3C2=O)c(C)c1 (stereo not shown) [I-b-60]
herbicidal effect against SETVI (Setaria viridis) [1]: 80% | herbicidal effect against ECHCG (Echinochloa crus-galli) [2]: 100% | herbicidal effect against ALOMY (Alopecurus myosuroides) [3]: 0% | herbicidal effect against LOLMU (Lolium multiflorum) [4]: 0% | herbicidal effect against AVEFA (Avena fatua) [5]: 0%

CCc1cc(C)cc(C)c1C1=C(OC(=O)C(C)(C)C)C2CC(=O)CC2C1=O (stereo not shown) [I-b-71]
herbicidal effect against SETVI (Setaria viridis) [1]: 100% | herbicidal effect against ECHCG (Echinochloa crus-galli) [2]: 100% | herbicidal effect against ALOMY (Alopecurus myosuroides) [3]: 0% | herbicidal effect against LOLMU (Lolium multiflorum) [4]: 0% | herbicidal effect against AVEFA (Avena fatua) [5]: 0%

CCc1cc(C)cc(CC)c1C1=C(OC(=O)OC)[C@H]2C[C@@]3(COC(C)(C)O3)C[C@H]2C1=O [I-c-1]
pest or weed control at 80 g/ha [1]: 40% | pest or weed control at 80 g/ha [2]: 60% | pest or weed control at 80 g/ha [3]: 100% | pest or weed control at 80 g/ha [4]: 100% | pest or weed control at 80 g/ha [5]: 60%

CCOC(=O)OC1=C(c2c(CC)cc(C)cc2CC)C(=O)C2CC3(CC12)SCCCS3 (stereo not shown) [I-c-16]
herbicidal effect against SETVI (Setaria viridis) [1]: 30% | herbicidal effect against ECHCG (Echinochloa crus-galli) [2]: 90% | herbicidal effect against ALOMY (Alopecurus myosuroides) [3]: 0% | herbicidal effect against LOLMU (Lolium multiflorum) [4]: 80% | herbicidal effect against AVEFA (Avena fatua) [5]: 30%

CCOC(=O)OC1=C(c2c(CC)cc(C)cc2CC)C(=O)C2CC(=O)CC12 (stereo not shown) [I-c-17]
pest or weed control at 80 g/ha [1]: 90% | pest or weed control at 80 g/ha [2]: 100% | pest or weed control at 80 g/ha [3]: 30% | pest or weed control at 80 g/ha [4]: 40% | pest or weed control at 80 g/ha [5]: 0%

CCc1cc(C)cc(CC)c1C1=C(OC(=O)OC)C2CC3(CC2C1=O)SCCCS3 (stereo not shown) [I-c-20]
herbicidal effect against SETVI (Setaria viridis) [1]: 100% | herbicidal effect against ECHCG (Echinochloa crus-galli) [2]: 100% | herbicidal effect against ALOMY (Alopecurus myosuroides) [3]: 90% | herbicidal effect against LOLMU (Lolium multiflorum) [4]: 100% | herbicidal effect against AVEFA (Avena fatua) [5]: 90%

CCOC(=O)OC1=C(c2c(CC)cc(C)cc2CC)C(=O)C2CC(=NOC(C)(C)C)CC12 (stereo not shown) [I-c-38]
herbicidal effect against SETVI (Setaria viridis) [1]: 30% | herbicidal effect against ECHCG (Echinochloa crus-galli) [2]: 80% | herbicidal effect against ALOMY (Alopecurus myosuroides) [3]: 70% | herbicidal effect against LOLMU (Lolium multiflorum) [4]: 90% | herbicidal effect against AVEFA (Avena fatua) [5]: 0%

CCc1cc(C)cc(CC)c1C1=C(OC(=O)OC)C2CC(=O)CC2C1=O (stereo not shown) [I-c-42]
herbicidal effect against SETVI (Setaria viridis) [1]: 100% | herbicidal effect against ECHCG (Echinochloa crus-galli) [2]: 100% | herbicidal effect against ALOMY (Alopecurus myosuroides) [3]: 0% | herbicidal effect against LOLMU (Lolium multiflorum) [4]: 0% | herbicidal effect against AVEFA (Avena fatua) [5]: 0%

CCc1cc(C)cc(CC)c1C1=C(O)[C@H]2CC3(C[C@H]2C1=O)SCCCS3 [I-f-1]
pest or weed control at 80 g/ha [1]: 80% | pest or weed control at 80 g/ha [2]: 90% | pest or weed control at 80 g/ha [3]: 80% | pest or weed control at 80 g/ha [4]: 90% | pest or weed control at 80 g/ha [5]: 40%

Cc1cc(C)c(C2=C([O-])C3CC4(CC3C2=O)OC(C)CC(C)O4)c(C)c1.[Na+] (stereo not shown) [I-f-3]
herbicidal effect against SETVI (Setaria viridis) [1]: 80% | herbicidal effect against ECHCG (Echinochloa crus-galli) [2]: 90% | herbicidal effect against ALOMY (Alopecurus myosuroides) [3]: 90% | herbicidal effect against LOLMU (Lolium multiflorum) [4]: 90% | herbicidal effect against AVEFA (Avena fatua) [5]: 0%

Cc1cc(C)c(C2=C([O-])C3CC4(CC3C2=O)OCCCCO4)c(C)c1.[Na+] (stereo not shown) [I-f-10]
herbicidal effect against SETVI (Setaria viridis) [1]: 90% | herbicidal effect against ECHCG (Echinochloa crus-galli) [2]: 90% | herbicidal effect against ALOMY (Alopecurus myosuroides) [3]: 100% | herbicidal effect against LOLMU (Lolium multiflorum) [4]: 100% | herbicidal effect against AVEFA (Avena fatua) [5]: 80%

C=C1CC2C(=O)C(c3c(C)cc(C)cc3C)=C([O-])C2C1.[Na+] (stereo not shown) [I-f-23]
herbicidal effect against SETVI (Setaria viridis) [1]: 80% | herbicidal effect against ECHCG (Echinochloa crus-galli) [2]: 90% | herbicidal effect against ALOMY (Alopecurus myosuroides) [3]: 0% | herbicidal effect against LOLMU (Lolium multiflorum) [4]: 60% | herbicidal effect against AVEFA (Avena fatua) [5]: 0%
